# From publication PMC10615259, “The Aurora kinase B relocation blocker LXY18 triggers mitotic catastrophe selectively in malignant cells” (PLOS ONE, 2023)
# Columns and labels:
# Experiment in all cases: radiometric kinase assay (Eurofins KinaseProfiler)
# Format in all cases: biochemical
# Conditions in all cases: 2 µM LXY18; Mg/ATP; 120 min; room temperature; no pre-incubation
# ABL [1] = target: T1, ABL (Homo sapiens, UniProt P00519, H396P)
# T1 construct: gene ABL1; Eurofins KinaseProfiler panel kinase
# ABL [2] = target: T2, ABL (Homo sapiens, UniProt P00519)
# T2 construct: gene ABL1; Eurofins KinaseProfiler panel kinase
# MKK3 = target: T3, MKK3 (Homo sapiens, UniProt P46734)
# T3 construct: gene MAP2K3; Eurofins KinaseProfiler panel kinase
# T3 sequence (P46734 1-347): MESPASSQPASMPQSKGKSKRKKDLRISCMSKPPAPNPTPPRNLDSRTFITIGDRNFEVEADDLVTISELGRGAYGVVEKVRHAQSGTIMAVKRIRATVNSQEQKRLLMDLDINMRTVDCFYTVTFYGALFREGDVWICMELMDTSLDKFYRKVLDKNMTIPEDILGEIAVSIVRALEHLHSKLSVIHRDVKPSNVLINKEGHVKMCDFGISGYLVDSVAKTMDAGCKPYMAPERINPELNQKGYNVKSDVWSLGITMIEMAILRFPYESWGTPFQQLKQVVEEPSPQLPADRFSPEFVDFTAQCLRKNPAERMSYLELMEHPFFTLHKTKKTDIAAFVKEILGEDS
structure (smiles),measurement,setting,value
"COc1cc(NC(C)=O)cc(Oc2ccnc3ccc(Br)cc23)c1 [LXY18, N-(3-((6-bromoquinolin-4-yl)oxy)-5-methoxyphenyl)acetamide]",% inhibition at 2 μM,ABL [1],"MKK3, ABL, and an activating mutant ABL (H396P)"
same,% inhibition at 2 μM,ABL [2],"The only positive hits in the kinome assay were MKK3, ABL, and an activating mutant"
same,% inhibition at 2 μM,MKK3,"The only positive hits in the kinome assay were MKK3, ABL, and an activating mutant"
